According to US9999222B2, “Herbicidal combination comprising azines” (BASF SE, priority 2014, dated 2018):
Several values for one entry are separate records, joined by “and”; a condition that tells them apart may be missing. Identical values can stand only once.

What was measured:
Assay in all cases: Greenhouse test, pre-emergence treatment
[1] = tested on: LOLMU; assay type: in vivo, Lolium multiflorum; settings: Lolium multiflorum, pre-emergence, 480 h, pre-emergence, 20 DAT, read-out: observed % activity 20 DAT
Method in brief: (§1)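 Seeds were sown in loamy sand with about 3.0% humus, and compounds in water were sprayed immediately after sowing, alone or as combinations formulated as 10% emulsion concentrates. Plants grew under hoods until rooted, at 10-25 °C or 20-35 °C by species, for 2 to 4 weeks. Damage was scored 0-100 (100 = no emergence or complete destruction), and Colby expected values were E=X+Y−(X·Y/100).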

[2] = tested on: GERPU; assay type: in vivo, Geranium pusillum; settings: Geranium pusillum, pre-emergence, 480 h, pre-emergence, 20 DAT, read-out: observed % activity 20 DAT
Method in brief: as §1

[3] = tested on: ECHCG; assay type: in vivo, Echinocloa crus-galli; settings: Echinochloa crus-galli, 480 h, 20 DAT, read-out: observed % activity 20 DAT
Method in brief: as §1

[4] = tested on: PHACA; assay type: in vivo, Phalaris canariensis; settings: Phalaris canariensis, pre-emergence, 480 h, pre-emergence, 20 DAT, read-out: observed % activity 20 DAT
Method in brief: as §1

[5] = tested on: SETFA; assay type: in vivo, Setaria faberi; settings: 20 DAT
Method in brief: as §1

[6] = tested on: POLCO; assay type: in vivo, Polygonum convolvulus; settings: pre-emergence, 20 DAT
Method in brief: as §1

[7] = tested on: ALOMY; assay type: in vivo, Alopecurus myosuroides; settings: pre-emergence, pre-emergence, 20 DAT
Method in brief: as §1

[8] = tested on: KCHSC; assay type: in vivo, Kochia scoparia; settings: pre-emergence, 20 DAT
Method in brief: as §1

CC(C)(F)c1nc(N)nc(Nc2c(F)c(F)cc(F)c2F)n1 [compound 2, 6-(1-Fluoro-1-methyl-ethyl)-N4-(2,3,5,6-tetrafluorophenyl)-1,3,5-triazine-2,4-diamine]
inhibition at 1 g/ha ([1]; LOLMU, use rate 1 g ai/ha): 40% | inhibition at 2 g/ha ([1]; LOLMU, use rate 2 g ai/ha): 80% | inhibition at 4 g/ha ([1]; LOLMU, use rate 4 g ai/ha): 95% | pest or weed control at 1 g/ha ([1]; use rate 1 g ai/ha): 20% | pest or weed control at 2 g/ha ([1]; use rate 2 g ai/ha): 80% | pest or weed control at 4 g/ha ([1]; use rate 4 g ai/ha): 95% | pest or weed control at 1 g/ha ([2]; use rate 1 g ai/ha): 0% | pest or weed control at 2 g/ha ([2]; use rate 2 g ai/ha): 0% | inhibition at 1 g/ha ([3]; ECHCG, use rate 1 g ai/ha): 65% | inhibition at 2 g/ha ([3]; ECHCG, use rate 2 g ai/ha): 98% | pest or weed control at 1 g/ha ([3]; use rate 1 g ai/ha): 65% | inhibition at 1 g/ha ([4]; PHACA, use rate 1 g ai/ha): 20% | inhibition at 2 g/ha ([4]; PHACA, use rate 2 g ai/ha): 70% | pest or weed control at 1 g/ha ([4]; use rate 1 g ai/ha): 20% | pest or weed control at 4 g/ha ([4]; use rate 4 g ai/ha): 95% | pest or weed control at 8 g/ha ([4]; use rate 8 g ai/ha): 85% | inhibition at 1 g/ha ([5]; Setaria faberi, 480 h, SETFA, use rate 1 g ai/ha, read-out: observed % activity 20 DAT): 80% | inhibition at 2 g/ha ([5]; Setaria faberi, 480 h, SETFA, use rate 2 g ai/ha, read-out: observed % activity 20 DAT): 95% | inhibition at 4 g/ha ([5]; Setaria faberi, 480 h, SETFA, use rate 4 g ai/ha, read-out: observed % activity 20 DAT): 95% | observed % activity 20 DAT ([5]; use rate 2 g ai/ha): 75% and 65% | pest or weed control at 1 g/ha ([6]; Fallopia convolvulus, 480 h, use rate 1 g ai/ha, read-out: observed % activity 20 DAT): 60% | pest or weed control at 2 g/ha ([6]; Fallopia convolvulus, 480 h, use rate 2 g ai/ha, read-out: observed % activity 20 DAT): 70% | inhibition at 2 g/ha ([6]; Fallopia convolvulus, 480 h, POLCO, use rate 2 g ai/ha, read-out: observed % activity 20 DAT): 70% | inhibition at 4 g/ha ([6]; Fallopia convolvulus, 480 h, POLCO, use rate 4 g ai/ha, read-out: observed % activity 20 DAT): 95% | observed % activity 20 DAT ([6]; POLCO, use rate 1 g ai/ha): 15% | inhibition at 1 g/ha ([7]; Alopecurus myosuroides, 480 h, ALOMY, use rate 1 g ai/ha, read-out: observed % activity 20 DAT): 60% | inhibition at 2 g/ha ([7]; Alopecurus myosuroides, 480 h, ALOMY, use rate 2 g ai/ha, read-out: observed % activity 20 DAT): 70% | inhibition at 4 g/ha ([7]; Alopecurus myosuroides, 480 h, ALOMY, use rate 4 g ai/ha, read-out: observed % activity 20 DAT): 90% | pest or weed control at 1 g/ha ([7]; Alopecurus myosuroides, 480 h, use rate 1 g ai/ha, read-out: observed % activity 20 DAT): 45% | pest or weed control at 2 g/ha ([7]; Alopecurus myosuroides, 480 h, use rate 2 g ai/ha, read-out: observed % activity 20 DAT): 75% | pest or weed control at 4 g/ha ([7]; Alopecurus myosuroides, 480 h, use rate 4 g ai/ha, read-out: observed % activity 20 DAT): 90% | observed % activity 20 DAT ([7]; ALOMY, use rate 4 g ai/ha): 95% | observed % activity 20 DAT ([7]; ALOMY, use rate 8 g ai/ha): 50% and 80% and 95% | pest or weed control at 1 g/ha ([8]; Bassia scoparia, 480 h, use rate 1 g ai/ha, read-out: observed % activity 20 DAT): 0% | pest or weed control at 2 g/ha ([8]; Bassia scoparia, 480 h, use rate 2 g ai/ha, read-out: observed % activity 20 DAT): 50% | inhibition at 1 g/ha ([8]; Bassia scoparia, 480 h, KCHSC, use rate 1 g ai/ha, read-out: observed % activity 20 DAT): 45% | inhibition at 2 g/ha ([8]; Bassia scoparia, 480 h, KCHSC, use rate 2 g ai/ha, read-out: observed % activity 20 DAT): 80% | inhibition at 4 g/ha ([8]; Bassia scoparia, 480 h, KCHSC, use rate 4 g ai/ha, read-out: observed % activity 20 DAT): 90% | inhibition at 8 g/ha ([8]; Bassia scoparia, 480 h, KCHSC, use rate 8 g ai/ha, read-out: observed % activity 20 DAT): 80% | observed % activity 20 DAT ([8]; KCHSC, use rate 8 g ai/ha): 95%
